Experiments:
[1] = biological target: Human immunodeficiency virus type 1 integrase (Human immunodeficiency virus 1, UniProt Q7ZJM1); test: Inhibition of HIV1 integrase strand transfer activity
[2] = Therapeutic index, ratio of CC50 for human HeLaP4-2 cells to IC50 for HIV1 HXB2 infected in human HeLaP4-2 cells; assay type: cell-based; details: HeLaP4-2 cells infected with HIV1 HXB2, read-out: Ratio CC50/IC50
[3] = tested on: Human immunodeficiency virus 1; test: Antiviral activity against HIV1 HXB2 infected in human HeLaP4-2 cells assessed as inhibition of single-cycle viral replication; assay type: functional, organism-based; details: Human immunodeficiency virus 1, HXB2, HeLaP4-2
[4] = Cytotoxicity against human HeLaP4-2 cells by alamar blue assay; assay type: cell-based
[5] = biological target: Human immunodeficiency virus type 1 reverse transcriptase (Human immunodeficiency virus 1, UniProt Q72547); test: Inhibition of wild type HIV1 reverse transcriptase RNasH activity
[6] = Inhibition of HIV1 reverse transcriptase D443N mutant RNA-dependent DNA plymerase activity; set-up: species or system Human immunodeficiency virus 1
[7] = tested on: Human immunodeficiency virus 1; test: Selectivity ratio of IC50 for HIV1 reverse transcriptase D443N mutant RNA-dependent DNA plymerase activity to IC50 for wild type HIV1 reverse transcriptase RNasH activity
[8] = tested on: Human immunodeficiency virus 1; test: Selectivity ratio of IC50 for HIV1 integrase strand transfer activity to IC50 for wild type HIV1 reverse transcriptase RNasH activity
[9] = Cytotoxicity against human HeLaP4-2 cells up to 50 uM by alamar blue assay; assay type: cell-based
[10] = Lipophilicity, log P of the compound; assay type: physicochemical; details: octanol/water
MT4 = test: Cytotoxicity against human MT4 cells at 1.5 uM; assay type: cell-based; details: mt4, 1.5 µM
[11] = tested on: Human immunodeficiency virus 1; test: Selectivity ratio of IC50 for HIV1 integrase Q148R mutant strand transfer activity to IC50 for HIV1 integrase strand transfer activity
[12] = tested on: Human immunodeficiency virus 1; test: Selectivity ratio of IC50 for HIV1 integrase Y143R mutant strand transfer activity to IC50 for HIV1 integrase strand transfer activity
[13] = tested on: Human immunodeficiency virus 1; test: Selectivity ratio of IC50 for HIV1 integrase N155H mutant strand transfer activity to IC50 for HIV1 integrase strand transfer activity
[14] = tested on: Human immunodeficiency virus 1; test: Antiviral activity against HIV1 3B infected in human MT4 cells assessed as decrease in viral p24 antigen level after 14 to 21 days; assay type: functional; details: Human immunodeficiency virus 1, 3B

Chain of Human immunodeficiency virus type 1 integrase (Q7ZJM1 whole entry): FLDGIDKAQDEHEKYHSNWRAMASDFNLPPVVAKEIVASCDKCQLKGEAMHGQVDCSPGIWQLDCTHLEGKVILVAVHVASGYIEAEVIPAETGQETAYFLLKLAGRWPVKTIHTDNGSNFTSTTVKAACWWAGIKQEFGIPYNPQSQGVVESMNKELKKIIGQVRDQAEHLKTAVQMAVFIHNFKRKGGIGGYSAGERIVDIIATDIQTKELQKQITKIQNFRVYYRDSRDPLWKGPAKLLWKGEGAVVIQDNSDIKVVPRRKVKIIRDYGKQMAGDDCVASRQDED

Compound | IC50 [1] [µM] | selectivity ratio [2] | IC50 [3] [nM] | CC50 [4] [µM] | IC50 [5] [nM] | IC50 [6] [µM] | Ratio IC50 [7] | Ratio IC50 [8] | Activity [9] | logP [10] | Activity (MT4) | Ratio IC50 [11] | Ratio IC50 [12] | Ratio IC50 [13] | IC95 [14] [µM]
NCc1ccc(-c2cccc(-c3cc(=O)n(O)c4ncccc34)c2)cc1 | 7.8 | 3 | 620 | 2.3 | 130 | 16 | – | – | – | – | – | – | – | – | –
NCc1cccc(-c2cccc(-c3cc(=O)n(O)c4ncccc34)c2)c1 | 9.1 | 3 | 850 | 4.9 | 150 | 5.1 | – | – | – | – | – | – | – | – | –
NCc1ccccc1-c1cccc(-c2cc(=O)n(O)c3ncccc23)c1 | 18 | 3 | 2800 | 9.1 | 670 | 36 | – | – | – | – | – | – | – | – | –
O=c1cc(-c2cccc(-c3ccccc3)c2)c2cccnc2n1O | 2.4 | – | 34000 | > 50 | 640 | 9 | – | – | – | – | – | – | – | – | –
NCc1ccc(-c2cccc(Cc3cc(=O)n(O)c4ncccc34)c2)cc1 | 8.1 | 11 | 430 | 4.6 | 100 | 11 | – | – | – | – | – | – | – | – | –
O=c1ccc2cccnc2n1O | 15 | 4 | 4500 | 20 | 1400 | > 50 | 30 | 10 | – | – | – | – | – | – | –
CCOC(=O)c1c(O)c2cccnc2n(O)c1=O | – | – | 2500 | – | 110 | – | – | – | Non-toxic | 2.2 | – | – | – | – | –
NCc1ccc(-c2ccc(Cc3cc(=O)n(O)c4ncccc34)cc2)cc1 | 24 | 17 | 190 | 3.3 | 45 | 13 | – | – | – | 0.15 | Non-toxic | 1.9 | 0.84 | 1.1 | 0.92
